# Assay results from PMC9021288 (Nature Communications, 2022).
# Like-named read-outs stand apart in the source and are kept apart here.
# Test system: TA98, TA100, TA102, TA1535, TA1537
# Experimental: Safety studies were performed by commercial services using their standard protocols. […] Genotoxicity was investigated using the Ames test (Bacterial Reverse Mutation Assay) (Covance Laboratories Ltd, North Yorkshire, England). In vitro mammalian cell micronucleus screening assay was studied in human peripheral blood lymphocytes (BioReliance Corporation, Rockville, USA). Cardiotoxicity was determined against the hERG channel in an automated patch clamp assay using the Qpatch or against the hNaV 1.5, hKV 1.5 and hCaV 1.2 using a manual patch-clamp technique (Metrion Biosciences, Cambridge, UK). Cytotoxicity in human and rat primary hepatocytes was assessed using the CellTiter-Blue assay performed by commercial services (KaLy-Cell). The viability of HepG2 cells was monitored through the addition of 1 mM resazurin. Following 6 h incubation, the relative amount of reduced resazurin was detected in a fluorimeter and compared to the assay controls (vehicle: 0.1% DMSO and positive control: 10 µM puromycin).
compound,measurement,setting,value
C[C@@H](CNC(=O)[C@H](O)C(C)(C)CO)NC(=O)c1cc(F)c(F)cc1F [MMV693183],Mean (Revertant Numbers Per Plate),"TA102, +S-9, 160 ug/plate",298.7
same,Fold Increase,"TA102, +S-9, 500 ug/plate",1.3
same,Mean (Revertant Numbers Per Plate),"TA102, +S-9, 500 ug/plate",283
same,Fold Increase,"TA102, +S-9, 1600 ug/plate",1.1
same,Mean (Revertant Numbers Per Plate),"TA102, +S-9, 1600 ug/plate",257
same,Fold Increase,"TA102, +S-9, 5000 ug/plate",0.8
same,Mean (Revertant Numbers Per Plate),"TA102, +S-9, 5000 ug/plate",184.3
same,Fold Increase,"TA102, -S-9, 5 ug/plate",1
same,Mean (Revertant Numbers Per Plate),"TA102, -S-9, 5 ug/plate",245.7
same,Fold Increase,"TA102, -S-9, 16 ug/plate",1.1
same,Mean (Revertant Numbers Per Plate),"TA102, -S-9, 16 ug/plate",251.3
same,Fold Increase,"TA102, -S-9, 50 ug/plate",1.1
same,Mean (Revertant Numbers Per Plate),"TA102, -S-9, 50 ug/plate",256.3
same,Fold Increase,"TA102, -S-9, 160 ug/plate",1
same,Mean (Revertant Numbers Per Plate),"TA102, -S-9, 160 ug/plate",240
same,Fold Increase,"TA102, -S-9, 500 ug/plate",0.9
same,Mean (Revertant Numbers Per Plate),"TA102, -S-9, 500 ug/plate",202.7
same,Fold Increase,"TA102, -S-9, 1600 ug/plate",0.8
same,Mean (Revertant Numbers Per Plate),"TA102, -S-9, 1600 ug/plate",181.7
same,Fold Increase,"TA102, -S-9, 5000 ug/plate",0.1
same,Mean (Revertant Numbers Per Plate),"TA102, -S-9, 5000 ug/plate",26.7
same,Fold Increase,"TA1535, +S-9, 5 ug/plate",0.9
same,Mean (Revertant Numbers Per Plate),"TA1535, +S-9, 5 ug/plate",20.7
same,Fold Increase,"TA1535, +S-9, 16 ug/plate",0.8
same,Mean (Revertant Numbers Per Plate),"TA1535, +S-9, 16 ug/plate",19.3
same,Fold Increase,"TA1535, +S-9, 50 ug/plate",1
same,Mean (Revertant Numbers Per Plate),"TA1535, +S-9, 50 ug/plate",23.3
same,Fold Increase,"TA1535, +S-9, 160 ug/plate",1.1
same,Mean (Revertant Numbers Per Plate),"TA1535, +S-9, 160 ug/plate",25
same,Fold Increase,"TA1535, +S-9, 500 ug/plate",0.8
same,Mean (Revertant Numbers Per Plate),"TA1535, +S-9, 500 ug/plate",17.7
same,Fold Increase,"TA1535, +S-9, 1600 ug/plate",1
same,Mean (Revertant Numbers Per Plate),"TA1535, +S-9, 1600 ug/plate",24
same,Fold Increase,"TA1535, +S-9, 5000 ug/plate",1
same,Mean (Revertant Numbers Per Plate),"TA1535, +S-9, 5000 ug/plate",22.7
same,Fold Increase,"TA1535, -S-9, 5 ug/plate",1.4
same,Mean (Revertant Numbers Per Plate),"TA1535, -S-9, 5 ug/plate",35
same,Fold Increase,"TA1535, -S-9, 16 ug/plate",0.8
same,Mean (Revertant Numbers Per Plate),"TA1535, -S-9, 16 ug/plate",20.7
same,Fold Increase,"TA1535, -S-9, 50 ug/plate",0.9
same,Mean (Revertant Numbers Per Plate),"TA1535, -S-9, 50 ug/plate",22
same,Fold Increase,"TA1535, -S-9, 160 ug/plate",0.9
same,Mean (Revertant Numbers Per Plate),"TA1535, -S-9, 160 ug/plate",24
same,Fold Increase,"TA1535, -S-9, 500 ug/plate",1.2
same,Mean (Revertant Numbers Per Plate),"TA1535, -S-9, 500 ug/plate",29.3
same,Fold Increase,"TA1535, -S-9, 1600 ug/plate",1
same,Mean (Revertant Numbers Per Plate),"TA1535, -S-9, 1600 ug/plate",26
same,Fold Increase,"TA1535, -S-9, 5000 ug/plate",0.9
same,Mean (Revertant Numbers Per Plate),"TA1535, -S-9, 5000 ug/plate",22
same,difference in revertant numbers vs control,"TA1535, TA1537",< 3 fold
same,Fold Increase,"TA1537, +S-9, 5 ug/plate",1.4
same,Mean (Revertant Numbers Per Plate),"TA1537, +S-9, 5 ug/plate",10
same,Fold Increase,"TA1537, +S-9, 16 ug/plate",1.1
same,Mean (Revertant Numbers Per Plate),"TA1537, +S-9, 16 ug/plate",7.7
same,Fold Increase,"TA1537, +S-9, 50 ug/plate",1.9
same,Mean (Revertant Numbers Per Plate),"TA1537, +S-9, 50 ug/plate",13.3
same,Fold Increase,"TA1537, +S-9, 160 ug/plate",1
same,Mean (Revertant Numbers Per Plate),"TA1537, +S-9, 160 ug/plate",7.3
same,Fold Increase,"TA1537, +S-9, 500 ug/plate",1.6
same,Mean (Revertant Numbers Per Plate),"TA1537, +S-9, 500 ug/plate",11
same,Fold Increase,"TA1537, +S-9, 1600 ug/plate",1.4
same,Mean (Revertant Numbers Per Plate),"TA1537, +S-9, 1600 ug/plate",9.7
same,Fold Increase,"TA1537, +S-9, 5000 ug/plate",1
same,Mean (Revertant Numbers Per Plate),"TA1537, +S-9, 5000 ug/plate",7.3
same,Fold Increase,"TA1537, -S-9, 5 ug/plate",1.1
same,Mean (Revertant Numbers Per Plate),"TA1537, -S-9, 5 ug/plate",7.7
same,Fold Increase,"TA1537, -S-9, 16 ug/plate",0.9
same,Mean (Revertant Numbers Per Plate),"TA1537, -S-9, 16 ug/plate",6.3
same,Fold Increase,"TA1537, -S-9, 50 ug/plate",1
same,Mean (Revertant Numbers Per Plate),"TA1537, -S-9, 50 ug/plate",6.7
same,Fold Increase,"TA1537, -S-9, 160 ug/plate",0.8
same,Mean (Revertant Numbers Per Plate),"TA1537, -S-9, 160 ug/plate",5.3
same,Fold Increase,"TA1537, -S-9, 500 ug/plate",1
same,Mean (Revertant Numbers Per Plate),"TA1537, -S-9, 500 ug/plate",7.3
same,Fold Increase,"TA1537, -S-9, 1600 ug/plate",0.9
same,Mean (Revertant Numbers Per Plate),"TA1537, -S-9, 1600 ug/plate",6
same,Fold Increase,"TA1537, -S-9, 5000 ug/plate",0.6
same,Mean (Revertant Numbers Per Plate),"TA1537, -S-9, 5000 ug/plate",4
